Results: patent publication US20090143279A1 (priority 2007, published 2009)
Several values for one entry are separate records, joined by “and”; a condition that tells them apart may be missing. Identical values can stand only once. Like-named read-outs stand apart in the source and are kept apart here.

Tests used:
[1] = test system: nuOXPHOS transcripts; assay type: cell-based, mouse; settings: for nucOXPHOS Z: Table 7, C2C12 myotubes, 48 h, composite Z-score
[2] = test system: mtOXPHOS transcripts; assay type: cell-based, mouse; settings: for mito-OXPHOS Z: Table 7, C2C12 myotubes, 48 h, composite Z-score
[3] = test system: reactive oxygen species; assay type: cell-based, mouse
[4] = test system: OXPHOS gene expression; assay type: cell-based, mouse
[5] = test system: cytochrome c; assay type: cell-based, mouse
cytochrome c, sequence (P62897 whole entry): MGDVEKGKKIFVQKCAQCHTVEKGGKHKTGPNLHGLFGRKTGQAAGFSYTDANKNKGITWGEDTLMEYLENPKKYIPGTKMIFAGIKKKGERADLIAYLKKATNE

[6] = test system: mitochondrial membrane potential; assay type: cell-based, mouse
[7] = test system: C2C12 myotubes
[8] = test system: cellular dehydrogenase activity
[9] = Table 3, differentiated C2C12 myotubes, 48 h treatment, composite Z-score vs DMSO
[10] = Table 5, C2C12 myotubes, 48 h, composite Z-score
[11] = retest at 20 nM to 20 μM, FIG. 6a
[12] = Table 6, C2C12 myotubes, 48 h, composite Z-score
[13] = normalized composite Z-score vs mock-treated (DMSO) wells, Conc 20 μM
[14] = 20 μM, composite Z-score vs DMSO
[15] = composite Z-score vs DMSO, Conc 20 μM
[16] = composite Z-score vs mock-treated (DMSO) wells, Conc 20 μM

O=C1C(Cl)=C(Cl)C(=O)C(Cl)=C1Cl [Chloranil, reference compound]
nucOXPHOS Z [1]: −2.45
mito-OXPHOS Z [2]: 2.50

COc1cc2c(c(OC)c1OC)-c1ccc(OC)c(=O)cc1[C@@H](NC(C)=O)CC2 [Colchicine, reference compound]
nucOX [1]: 0.807 and 1.549
ROS levels [3]: did not display the same decrease in ROS levels
OXPHOS expression [4]: modest increase

CO[C@H]1C=C[C@@]23c4cc5c(cc4CN(C[C@@H]2O)[C@H]3C1)OCO5 [Crinamine, reference compound]
nucOXPHOS Z [1]: 2.27
mito-OXPHOS Z [2]: −2.89

CCN(CC)C(=S)SSC(=S)N(CC)CC [Disulfiram, reference compound]
nucOXPHOS Z [1]: −4.10
mito-OXPHOS Z [2]: 0.93

CC[C@H]1CN2CCc3cc(OC)c(OC)cc3[C@@H]2C[C@@H]1C[C@H]1NCCc2cc(OC)c(OC)cc21 [Emetine, reference compound]
nuOXPHOS expression [1]: preferentially increase
cyt c [5]: −1.644
cyt c (composite Z-score) [5]: −0.191

COC(=O)Nc1nc2cc(C(=O)c3cccs3)ccc2[nH]1 [Nocodazole, methyl[5-(2-thienylcarbonyl)-1H-benzimidazol-2-yl]carbamate, reference compound]
ROS Zscore [3, 9]: −1.099
ROS Zscore [3, 10]: −1.099
ROS levels ([3]; primary screen, in words): suppressing ROS levels
dose at which ROS levels decreased [3, 11]: 2 µM
GEHTS_Zscore [4, 9]: 2.675
GEHTS_Zscore [4, 10]: 2.675
OXPHOS expression ([4]; primary screen, in words): boost OXPHOS expression
dose at which OXPHOS expression increased [4, 11]: 2 µM

OCCN1CCN(CCCN2c3ccccc3Sc3ccc(Cl)cc32)CC1 [Perphenazine, reference compound]
decline of nuOXPHOS expression ([1]; 20 μM, within the first hour of treatment): 21%

CC(=O)Nc1ccc(O)cc1 [acetaminophen]
ROS [3]: 0.527
mitoOX [2]: 0.317

CCCSc1ccc2nc(NC(=O)OC)[nH]c2c1 [albendazole, reference compound]
cyt c [5]: −0.280
ROS Zscore [3]: −1.434
GEHTS_Zscore [4]: 2.379

C=C(C)[C@@H]1CC[C@]2(CO)CC[C@]3(C)[C@H](CC[C@@H]4[C@@]5(C)CC[C@H](O)C(C)(C)[C@@H]5CC[C@]43C)[C@@H]12 [betulin]
nucOX [1]: 0.598

O=c1cccc2n1C[C@@H]1CNC[C@H]2C1 [cytisine]
cyt c [5]: 0.186 and 0.095
ROS [3]: 1.150
GE-HTS [4]: 0.025

C[C@H]1C/C=C/[C@H]2[C@@H]3O[C@]3(C)[C@@H](C)[C@H]3[C@H](Cc4ccccc4)NC(=O)[C@]32OC(=O)O/C=C/[C@@](C)(O)C1=O [cytochalasin e, reference compound]
ROS Zscore [3, 9]: −2.109
GEHTS_Zscore [4, 9]: 2.827

COc1ccc2c(c1)OCC(Cc1ccc(OC(C)=O)c(OC)c1)C2=O (stereo not shown) [deoxysappanone (B) 7,3′-dimethyl ether acetate, reference compound]
ROS Zscore [3, 12]: −1.894
GEHTS_Zscore [4, 12]: −0.723

COc1ccc2c(c1)OCC(Cc1ccc(OC)c(OC)c1)C2=O (stereo not shown) [deoxysappanone (B) trimethyl ether, reference compound]
ROS Zscore [3, 12]: 1.064
GEHTS_Zscore [4, 12]: 0.768

COC1=CC(=O)C[C@@H](C)[C@]12Oc1c(Cl)c(OC)cc(OC)c1C2=O [griseofulvin, reference compound]
ROS Zscore [3, 10]: 0.371
ROS levels ([3]; primary screen, in words): did not display the same decrease in ROS levels
GEHTS_Zscore [4, 10]: 2.199
OXPHOS expression ([4]; primary screen, in words): modest increase

O=C1C[C@@H](c2ccc(O)cc2)Oc2cc(O)ccc21 [liquiritigenin]
ΔΨm [6, 13]: 1.004
Viability [7, 13]: 1.353
cyt c [5, 13]: 0.523
ROS [3, 13]: 0.301
GE-HTS [4, 13]: −0.749
mitoOX [2, 13]: −1.069
MTT [8, 13]: −0.429

CCOC(=O)N1CCC(=C2c3ccc(Cl)cc3CCc3cccnc32)CC1 [loratadine]
ΔΨm [6]: 0.191
Viability [7]: 0.552
cyt c [5]: −0.317
ROS [3]: 0.764
GE-HTS [4]: −0.306
MTT [8]: −1.609

CC(=O)CCCCn1c(=O)c2c(ncn2C)n(C)c1=O [pentoxifylline]
nucOX [1, 14]: 0.292
ΔΨm [6, 14]: −0.696
Viability [7, 14]: 0.375
cyt c [5, 14]: −0.798
ROS [3, 14]: 0.182
GE-HTS [4, 14]: 0.062
MTT [8, 14]: −0.600

CC(=O)O[C@H]1CC[C@@]2(C)C(=CC[C@@H]3[C@@H]2CC[C@]2(C)C(=O)CC[C@@H]32)C1 [praesterone acetate]
ΔΨm [6]: 1.329
Viability [7]: 1.018
cyt c [5]: −0.521
ROS [3]: 0.054
MTT [8]: 1.084

COC(=O)[C@]1(C)CC[C@]2(C)CC[C@]3(C)C4=CC=C5C(=CC(=O)C(O)=C5C)[C@]4(C)CC[C@@]3(C)[C@@H]2C1 [pristimerin]
ΔΨm [6, 15]: −3.651
Viability [7, 15]: −5.473
cyt c [5, 15]: −5.896
ROS [3, 15]: −3.693
MTT [8, 15]: −6.164

C=C(C)/C=C1/C=CC(=O)C(C)=C1 [retusoquinone]
ΔΨm [6, 16]: −3.628
Viability [7, 16]: −5.371
cyt c [5, 16]: −5.303
ROS [3, 16]: −3.565
MTT [8, 16]: −6.075

C=C(C)CCCC(C)CCOC(C)=O (stereo not shown) [rhodinyl acetate]
ΔΨm [6]: −0.631
Viability [7]: −0.197
cyt c [5]: 0.137
ROS [3]: −0.024
MTT [8]: −0.833

COc1ccc2c(c1)OCC(=Cc1ccc(O)c(O)c1)C2=O [sappanone (A) 7-methyl ether, reference compound]
ROS Zscore [3, 12]: −1.493
GEHTS_Zscore [4, 12]: 1.410

COc1ccc2c(c1)OC/C(=C/c1ccc(OC)c(OC)c1)C2=O [sappanone (A) trimethyl ether, reference compound]
ROS Zscore [3, 12]: 0.1195
GEHTS_Zscore [4, 12]: 2.376

COc1ccc2c(c1)OC[C@@H](Cc1ccc(OC)c(OC)c1)[C@H]2O [tetrahydrosappanone (A) trimethyl ether, reference compound]
ROS Zscore [3, 12]: 0.274
GEHTS_Zscore [4, 12]: 0.583

O=C1C(O)=C(O)C(=O)C(O)=C1O [tetrahydroxy-1,4-quinone]
ΔΨm [6]: −0.511
Viability [7]: −1.006
cyt c [5]: −0.785
ROS [3]: 0.667
MTT [8]: −1.965

CN(C)CCCN1c2ccccc2Sc2ccc(C(F)(F)F)cc21 [triflupromazine]
nucOX [1]: 0.404
ROS [3]: 1.208
GE-HTS [4]: 0.225

(S)-(−)-atenolol
ΔΨm [6]: 0.396
Viability [7]: 0.012
cyt c [5]: 0.030
ROS [3]: −0.554
MTT [8]: −0.552

L-methionine sulfoximine
ΔΨm [6]: −0.703
Viability [7]: −0.928
cyt c [5]: −0.412
ROS [3]: 0.762
MTT [8]: −1.902

dimenhydrinate
nucOX [1, 15]: −0.086
ΔΨm [6, 15]: −0.890
ROS [3, 15]: 0.339
GE-HTS [4, 15]: −0.225
MTT [8, 15]: −1.505

podophyllotoxin acetate [reference compound]
ROS Zscore [3, 9]: −1.656
GEHTS_Zscore [4, 9]: 3.506

pyrantel tartrate
ΔΨm [6]: −1.028
Viability [7]: 0.330
cyt c [5]: −0.306
ROS [3]: 1.579
MTT [8]: −1.214

sappanone (A) dimethyl ether [reference compound]
ROS Zscore [3, 12]: −2.429
GEHTS_Zscore [4, 12]: 0.524
